Biological target: T1, bacterial NAD synthetase enzyme (Bacillus subtilis, UniProt P08164)
T1 sequence (P08164 2-272 limits assumed): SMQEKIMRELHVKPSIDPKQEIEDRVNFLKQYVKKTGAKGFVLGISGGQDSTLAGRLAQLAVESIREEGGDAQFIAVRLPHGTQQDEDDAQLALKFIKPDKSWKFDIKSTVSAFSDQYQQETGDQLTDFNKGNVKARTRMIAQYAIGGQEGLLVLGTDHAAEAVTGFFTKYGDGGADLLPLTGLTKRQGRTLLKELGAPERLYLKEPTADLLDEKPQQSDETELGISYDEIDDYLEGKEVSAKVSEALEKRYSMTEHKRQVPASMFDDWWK
Assay: biochemical
Format: biochemical

[1] = compound at 0.2 mM (Table 312A)

Row | SMILES | % Inhibition [1] | further results
1 | O=[N+]([O-])c1ccc2c(ccn2CCCCCCCC[n+]2ccccc2)c1 [Compound 6] | 5.67% | 
2 | O=C(O)/C=C/c1cn(CCCC[n+]2cccc3ccccc32)c2ccccc12 [Compound 154] |  | % Inhibition (compound at 0.1 mM (Table 314)): 9.24%
3 | COC(=O)C=Cc1cn(CCCCC[n+]2cccc(C(=O)OC)c2)c2ccccc12 [Compound 268] | 11.23% | 
4 | c1cc[n+](CCCCCCCCc2cc3ccccc3[nH]2)cc1 [Compound 287] | 16.01% | 
5 | FC(F)(F)c1ccc2cc(CCCC[n+]3ccccc3)[nH]c2c1 [Compound 289] | 9.28% | 
6 | FC(F)(F)c1ccc2cc(CCCCC[n+]3ccccc3)[nH]c2c1 [Compound 290] |  | % Inhibition (compound at 0.1 mM (Table 314)): 12.89%
7 | FC(F)(F)c1ccc2cc(CCCCCCC[n+]3ccccc3)[nH]c2c1 [Compound 292] | 44.36% | 
8 | FC(F)(F)c1ccc2cc(CCCCCCCC[n+]3ccccc3)[nH]c2c1 [Compound 293] | 87.66% | 
9 | Cc1ccc2[nH]c(CCCCCCCC[n+]3ccccc3)cc2c1 [Compound 299] | 49.13% | 
10 | Fc1cc(F)c2[nH]c(CCCC[n+]3ccccc3)cc2c1 [Compound 301] | 6.12% | 
11 | Fc1cc(F)c2[nH]c(CCCCC[n+]3ccccc3)cc2c1 [Compound 302] | 21.48% | 
12 | Fc1cc(F)c2[nH]c(CCCCCCC[n+]3ccccc3)cc2c1 [Compound 304] |  | % Inhibition (compound at 0.1 mM (Table 314)): 29.48%
13 | Fc1cc(F)c2[nH]c(CCCCCCCC[n+]3ccccc3)cc2c1 [Compound 305] | 54.83% | 
14 | O=[N+]([O-])c1cc([N+](=O)[O-])c2[nH]c(CCCC[n+]3ccccc3)cc2c1 [Compound 307] | 4.40% | 
15 | O=[N+]([O-])c1cc([N+](=O)[O-])c2[nH]c(CCCCC[n+]3ccccc3)cc2c1 [Compound 308] | 33.71% | 
16 | O=[N+]([O-])c1cc([N+](=O)[O-])c2[nH]c(CCCCCCC[n+]3ccccc3)cc2c1 [Compound 310] | 38.29% | 
17 | O=[N+]([O-])c1cc([N+](=O)[O-])c2[nH]c(CCCCCCCC[n+]3ccccc3)cc2c1 [Compound 311] | 29.67% | 
18 | CCCCc1ccc2[nH]c(CCCC[n+]3ccccc3)cc2c1 [Compound 313] |  | % Inhibition (compound at 0.1 mM (Table 314)): 27.37%
19 | CCCCc1ccc2[nH]c(CCCCC[n+]3ccccc3)cc2c1 [Compound 314] |  | % Inhibition (compound at 0.1 mM (Table 314)): 9.19%
20 | CCCCc1ccc2[nH]c(CCCCCCCC[n+]3ccccc3)cc2c1 [Compound 317] |  | % Inhibition (compound at 0.1 mM (Table 314)): 25.04%
21 | CC(C)c1ccc2[nH]c(CCCC[n+]3ccccc3)cc2c1 [Compound 319] |  | % Inhibition (compound at 0.1 mM (Table 314)): 16.99%
22 | CC(C)c1ccc2[nH]c(CCCCC[n+]3ccccc3)cc2c1 [Compound 320] |  | % Inhibition (compound at 0.1 mM (Table 314)): 44.72%
23 | CC(C)c1ccc2[nH]c(CCCCCCC[n+]3ccccc3)cc2c1 [Compound 322] | 14.40% | 
24 | CC(C)c1ccc2[nH]c(CCCCCCCC[n+]3ccccc3)cc2c1 [Compound 323] | 28.08% | 
25 | c1ccc(-c2ccc3[nH]c(CCC[n+]4ccccc4)cc3c2)cc1 [Compound 324] | 34.99% | 
26 | c1ccc(-c2ccc3[nH]c(CCCC[n+]4ccccc4)cc3c2)cc1 [Compound 325] |  | % Inhibition (compound at 0.1 mM (Table 314)): 53.22%

Row | SMILES | % Inhibition [1] | further results
27 | c1ccc(-c2ccc3[nH]c(CCCCCCC[n+]4ccccc4)cc3c2)cc1 [Compound 328] |  | % Inhibition (compound at 0.1 mM (Table 314)): 47.85%
28 | c1ccc(-c2ccc3[nH]c(CCCCCCCC[n+]4ccccc4)cc3c2)cc1 [Compound 329] | 30.77% | 
29 | O=[N+]([O-])c1ccc2[nH]c(CCC[n+]3ccccc3)cc2c1 [Compound 330] | 23.96% | 
30 | O=[N+]([O-])c1ccc2[nH]c(CCCCC[n+]3ccccc3)cc2c1 [Compound 332] |  | % Inhibition (compound at 0.1 mM (Table 314)): 12.27%
31 | O=[N+]([O-])c1ccc2[nH]c(CCCCCCC[n+]3ccccc3)cc2c1 [Compound 334] | 41.67% | 
32 | O=[N+]([O-])c1ccc2[nH]c(CCCCCCCC[n+]3ccccc3)cc2c1 [Compound 335] | 3.28% | 
33 | c1ccc(C(c2ccccc2)(c2ccccc2)c2ccc3[nH]c(CCC[n+]4ccccc4)cc3c2)cc1 [Compound 336] |  | % Inhibition (compound at 0.1 mM (Table 314)): 18.02%
34 | c1ccc(C(c2ccccc2)(c2ccccc2)c2ccc3[nH]c(CCCC[n+]4ccccc4)cc3c2)cc1 [Compound 337] |  | % Inhibition (compound at 0.1 mM (Table 314)): 35.94%
35 | Fc1ccc2[nH]c(CCCC[n+]3ccccc3)cc2c1 [Compound 343] | 10.82% | 
36 | Fc1ccc2[nH]c(CCCCCCC[n+]3ccccc3)cc2c1 [Compound 346] |  | % Inhibition (compound at 0.1 mM (Table 314)): 42.57%
37 | c1ccc(Oc2ccc3[nH]c(CCC[n+]4ccccc4)cc3c2)cc1 [Compound 348] | 44.42% | 
38 | c1ccc(Oc2ccc3[nH]c(CCCC[n+]4ccccc4)cc3c2)cc1 [Compound 349] |  | IC50: 75 µM; inhibition at 100 µM: 86.6%
39 | c1ccc(Oc2ccc3[nH]c(CCCCCCC[n+]4ccccc4)cc3c2)cc1 [Compound 352] |  | % Inhibition (compound at 0.1 mM (Table 314)): 32.69%
40 | O=C(c1ccccc1)c1ccc2[nH]c(CCC[n+]3ccccc3)cc2c1 [Compound 354] | 2.96% | 
41 | O=C(c1ccccc1)c1ccc2[nH]c(CCCCCCC[n+]3ccccc3)cc2c1 [Compound 358] | 23.19% | 
42 | FC(F)(F)c1ccc2[nH]c(CCC[n+]3ccccc3)cc2c1 [Compound 360] | 3.46% | 
43 | FC(F)(F)c1ccc2[nH]c(CCCCCCCC[n+]3ccccc3)cc2c1 [Compound 365] | 16.45% | 
44 | CC(=O)c1ccc2[nH]c(CCCCCCC[n+]3ccccc3)cc2c1 [Compound 370] | 41.34% | 
45 | CC(=O)c1ccc2[nH]c(CCCCCCCC[n+]3ccccc3)cc2c1 [Compound 371] | 43.85% | 
46 | COc1ccc2[nH]c(CCCCCCC[n+]3ccccc3)cc2c1 [Compound 376] |  | % Inhibition (compound at 0.1 mM (Table 314)): 37.32%
47 | COc1ccc2[nH]c(CCCCCCCC[n+]3ccccc3)cc2c1 [Compound 377] | 30.12% | 
48 | COC(=O)c1ccc2[nH]c(CCCC[n+]3ccccc3)cc2c1 [Compound 379] | 6.27% | 
49 | COC(=O)c1ccc2[nH]c(CCCCCCCC[n+]3ccccc3)cc2c1 [Compound 383] | 2.76% | 
50 | O=C(O)c1ccc2[nH]c(CCC[n+]3ccccc3)cc2c1 [Compound 384] | 4.10% | 
51 | O=C(O)c1ccc2[nH]c(CCCC[n+]3ccccc3)cc2c1 [Compound 385] | 61.62% | 
52 | O=C(O)c1ccc2[nH]c(CCCCCCC[n+]3ccccc3)cc2c1 [Compound 388] | 25.86% | 

Row | SMILES | % Inhibition [1] | further results
53 | O=C(O)c1ccc2[nH]c(CCCCCCCC[n+]3ccccc3)cc2c1 [Compound 389] | 12.44% | 
54 | c1ccc2[nH]c(CCCCCCCC[n+]3cccc4ccccc43)cc2c1 [Compound 395] |  | % Inhibition (compound at 0.1 mM (Table 314)): 20.85%
55 | FC(F)(F)c1ccc2cc(CCCCCC[n+]3cccc4ccccc43)[nH]c2c1 [Compound 399] | 15.22% | 
56 | FC(F)(F)c1ccc2cc(CCCCCCCC[n+]3cccc4ccccc43)[nH]c2c1 [Compound 401] | 14.26% | 
57 | Cc1ccc2[nH]c(CCC[n+]3cccc4ccccc43)cc2c1 [Compound 402] |  | % Inhibition (compound at 0.1 mM (Table 314)): 4.71%
58 | Cc1ccc2[nH]c(CCCCCCCC[n+]3cccc4ccccc43)cc2c1 [Compound 407] | 24.14% | 
59 | Fc1cc(F)c2[nH]c(CCCCC[n+]3cccc4ccccc43)cc2c1 [Compound 410] | 8.77% | 
60 | Fc1cc(F)c2[nH]c(CCCCCCCC[n+]3cccc4ccccc43)cc2c1 [Compound 413] | 4.76% | 
61 | O=[N+]([O-])c1cc([N+](=O)[O-])c2[nH]c(CCC[n+]3cccc4ccccc43)cc2c1 [Compound 414] | 6.91% | 
62 | O=[N+]([O-])c1cc([N+](=O)[O-])c2[nH]c(CCCCCCC[n+]3cccc4ccccc43)cc2c1 [Compound 418] | 5.95% | 
63 | O=[N+]([O-])c1cc([N+](=O)[O-])c2[nH]c(CCCCCCCC[n+]3cccc4ccccc43)cc2c1 [Compound 419] | 24.28% | 
64 | CCCCc1ccc2[nH]c(CCC[n+]3cccc4ccccc43)cc2c1 [Compound 420] | 9.16% | 
65 | CCCCc1ccc2[nH]c(CCCC[n+]3cccc4ccccc43)cc2c1 [Compound 421] | 1.86% | 
66 | CCCCc1ccc2[nH]c(CCCCCCCC[n+]3cccc4ccccc43)cc2c1 [Compound 425] | 19.12% | 
67 | CC(C)c1ccc2[nH]c(CCCCCCC[n+]3cccc4ccccc43)cc2c1 [Compound 430] | 1.20% | 
68 | c1ccc(-c2ccc3[nH]c(CCCCCC[n+]4cccc5ccccc54)cc3c2)cc1 [Compound 435] | 17.24% | 
69 | c1ccc(-c2ccc3[nH]c(CCCCCCC[n+]4cccc5ccccc54)cc3c2)cc1 [Compound 436] | 11.57% | 
70 | O=[N+]([O-])c1ccc2[nH]c(CCCCCC[n+]3cccc4ccccc43)cc2c1 [Compound 441] | 11.80% | 
71 | c1ccc(C(c2ccccc2)(c2ccccc2)c2ccc3[nH]c(CCCCCC[n+]4cccc5ccccc54)cc3c2)cc1 [Compound 447] | 2.30% | 
72 | c1ccc(C(c2ccccc2)(c2ccccc2)c2ccc3[nH]c(CCCCCCC[n+]4cccc5ccccc54)cc3c2)cc1 [Compound 448] | 2.92% | 
73 | Fc1ccc2[nH]c(CCCCCCC[n+]3cccc4ccccc43)cc2c1 [Compound 454] | 7.95% | 
74 | c1ccc(Oc2ccc3[nH]c(CCCCCCC[n+]4cccc5ccccc54)cc3c2)cc1 [Compound 460] | 4.17% | 
75 | O=C(c1ccccc1)c1ccc2[nH]c(CCCCCCC[n+]3cccc4ccccc43)cc2c1 [Compound 466] | 5.79% | 
76 | O=C(c1ccccc1)c1ccc2[nH]c(CCCCCCCC[n+]3cccc4ccccc43)cc2c1 [Compound 467] | 15.08% | 
77 | FC(F)(F)c1ccc2[nH]c(CCCCCCC[n+]3cccc4ccccc43)cc2c1 [Compound 472] |  | % Inhibition (compound at 0.1 mM (Table 314)): 12.76%
78 | FC(F)(F)c1ccc2[nH]c(CCCCCCCC[n+]3cccc4ccccc43)cc2c1 [Compound 473] | 15.06% | 

Source: patent US6727237B2, “Inhibitors of bacterial NAD synthetase” (priority 1998, dated 2004)
